The experiment deals with T1, GPR6 receptor expressed in CHO-K1 cells (Homo sapiens, UniProt P46095).
T1 construct: expressed in transfected cells
T1 sequence (P46095 whole entry): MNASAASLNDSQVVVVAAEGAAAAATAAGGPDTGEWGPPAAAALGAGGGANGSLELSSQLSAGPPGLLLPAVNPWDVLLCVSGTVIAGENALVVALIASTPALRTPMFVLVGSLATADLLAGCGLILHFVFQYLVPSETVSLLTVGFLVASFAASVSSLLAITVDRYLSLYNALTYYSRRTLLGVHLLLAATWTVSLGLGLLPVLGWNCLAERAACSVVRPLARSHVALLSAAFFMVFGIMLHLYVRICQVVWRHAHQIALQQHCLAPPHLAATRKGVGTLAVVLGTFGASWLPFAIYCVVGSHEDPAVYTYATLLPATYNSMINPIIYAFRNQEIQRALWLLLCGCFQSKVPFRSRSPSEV
Description: In vitro inhibition of cAMP (EC50), cell-based HTRF cAMP assay. To be noted: inhibition of constitutive cAMP activity of GPR6 in CHO-K1 cells. As for the experimental part: I. In Vitro Inhibition of cAMP (EC50)
This cell based assay measures the ability of test compounds to inhibit the constitutive cAMP activity of GPR6 receptor expressed in CHO-K1 cells. CHO cells are stably expressed with GPR6 receptor, whose expression is controlled by a tetracycline inducible element. The cells were cultured in medium containing F12K, 10% FBS, 1% Penn/Strep, 200 μg/mL Hygromycin. GPR6 receptor expression is induced for 20 hours with 2 μg/mL doxycycline (Sigma D9891) in growth media. After addition of doxycycline, the cells are plated at a density of 450-750 cells per well in 96-well half-volume black tissue culture plates (Costar) and placed in an incubator (37° C., 5% CO2) for 20 hours prior to cAMP assays.
Culture media is removed from the cells and they are washed with 50 μL/well of Ringer's Buffer (MgCl2 0.047 mg/mL, NaH2PO4 0.18 mg/mL, Na2HPO4 0.1 mg/mL, KCl 0.34 mg/mL, NaHCO3 1.26 mg/mL, D-glucose 1.8 mg/mL, NaCl 7 mg/mL; pH=7.4). The test compounds are suspended in DMSO, diluted in Ringer's Buffer containing 0.5% fatty acid free BSA plus 300 μM IBMX, and incubated on the cells for 45 minutes at 37° C. and 5% CO2. After incubation, the cells are conditioned for 10 minutes at room temp with Eu-cAMP tracer solution from a Perkin Elmer Lance HTRF Ultra cAMP assay kit (TRF0263). Then ULight™-anti-cAMP solution from the Lance HTRF kit is added and incubated on a shaker at room temp for 1 hour prior to HTRF detection in a Perkin Elmer Envision plate reader. EC50 curves are generated with a four-parameter logistic equation using GraphPad Prism 5.03.
Table 1 lists biological assay data (in vitro inhibition of cAMP) for some of the compounds shown in the examples, where larger pEC50 values represent higher activity or potency. All of the compounds shown in Table 1 were tested in accordance with a cell-based assay which measures the ability of test compounds to inhibit the constitutive cAMP activity of GPR6 receptor expressed in CHO-K1 cells (reported as pEC50). The assay is described in the specification under the heading “In vitro inhibition of cAMP (EC50).”
(In general: TR-FRET usually uses a lanthanide donor and a delayed reading to cut background.)
As to `COc1ncccc1C(=O)Nc1cc(C#N)c(C#N)cc1N1CCC(Oc2ccc(F)cc2F)CC1` [Example 271], the “pEC50, in vitro inhibition of cAMP” value came to 7.1.

Regarding `COc1nccc(Cl)c1C(=O)Nc1cc(C#N)ccc1N1CCC(Oc2ccc(F)cc2F)CC1` [Example 223, 4-chloro-N-(5-cyano-2-(4-(2,4-difluorophenoxy)piperidin-1-yl)phenyl)-2-methoxynicotinamide], the “pEC50, in vitro inhibition of cAMP” value was 5.6.

With `COc1ccc(OC(F)(F)F)cc1C(=O)Nc1cc(C#N)ccc1N1CCC(Oc2ccc(F)cc2F)CC1` [Example 231, N-(5-cyano-2-(4-(2,4-difluorophenoxy)piperidin-1-yl)phenyl)-2-methoxy-5-(trifluoromethoxy)benzamide], the “pEC50, in vitro inhibition of cAMP” value came to 6.3.

`N#Cc1ccc(N2CCC(Oc3ccc(F)cc3F)CC2)c(NC(=O)c2ccc[nH]c2=O)c1` [Example 274]: the “pEC50, in vitro inhibition of cAMP” value was found to be 7.0.

For `CN(C)C(=O)Cn1cccc(C(=O)Nc2cc(C#N)ccc2N2CCC(Oc3ccc(F)cc3F)CC2)c1=O` [Example 204, N-(5-cyano-2-(4-(2,4-difluorophenoxy)piperidin-1-yl)phenyl)-1-(2-(dimethylamino)-2-oxoethyl)-2-oxo-1,2-dihydropyridine-3-carboxamide], the “pEC50, in vitro inhibition of cAMP” value came to 4.9.

With `Cc1nccc(C(=O)Nc2cc(C#N)ccc2N2CCC(Oc3ccc(F)cc3F)CC2)n1` [Example 141, N-(5-cyano-2-(4-(2,4-difluorophenoxy)piperidin-1-yl)phenyl)-2-methylpyrimidine-4-carboxamide], the “pEC50, in vitro inhibition of cAMP” value amounted to 7.2.

On to `COc1ccc(Cl)cc1C(=O)Nc1cc(C#N)ccc1N1CCC(Oc2ccc(F)cc2F)CC1` [Example 211, 5-chloro-N-(5-cyano-2-(4-(2,4-difluorophenoxy)piperidin-1-yl)phenyl)-2-methoxybenzamide], for which the “pEC50, in vitro inhibition of cAMP” value stood at 6.7.

On to `COc1nn(C)cc1C(=O)Nc1cc(C)cnc1N1CCN(Cc2ccc(C#N)c(F)c2)CC1` [Example 102, N-(2-(4-(4-cyano-3-fluorobenzyl)piperazin-1-yl)-5-methylpyridin-3-yl)-3-methoxy-1-methyl-1H-pyrazole-4-carboxamide], for which the “pEC50, in vitro inhibition of cAMP” value came to 6.1.

In the case of `COc1ncccc1C(=O)Nc1cc(C#N)ccc1N1CCN(Cc2ccc(F)cn2)CC1` [Example 244], the “pEC50, in vitro inhibition of cAMP” value was determined as 6.3.

Regarding `CC(=O)n1ncc2ccc(NC(=O)c3ccccn3)c(N3CCC(Oc4ccc(F)cc4F)CC3)c21` [Example 76, N-(1-acetyl-7-(4-(2,4-difluorophenoxy)piperidin-1-yl)-1H-indazol-6-yl)picolinamide], the “pEC50, in vitro inhibition of cAMP” value is reported as below 5.7.

Regarding `CCCNC(=O)c1cc(N2CCC(Oc3ccc(F)cc3F)CC2)c(NC(=O)c2cccnc2OC)cn1` [Example 254, 4-(4-(2,4-difluorophenoxy)piperidin-1-yl)-5-(2-methoxynicotinamido)-N-propylpicolinamide], the “pEC50, in vitro inhibition of cAMP” value came out at 7.2.

As for `COc1ccc(F)c(F)c1C(=O)Nc1cc(C#N)ccc1N1CCC(Oc2ccc(F)cc2F)CC1` [Example 192, N-(5-cyano-2-(4-(2,4-difluorophenoxy)piperidin-1-yl)phenyl)-2,3-difluoro-6-methoxybenzamide], the “pEC50, in vitro inhibition of cAMP” value is reported as 6.3.

On to `N#Cc1ccc(N2CCC(Oc3ccc(F)cc3F)CC2)c(NC(=O)c2cccnc2OC(F)F)c1` [Example 276, N-(5-cyano-2-(4-(2,4-difluorophenoxy)piperidin-1-yl)phenyl)-2-(difluoromethoxy)nicotinamide], for which the “pEC50, in vitro inhibition of cAMP” value was found to be 7.3.

As for `Cn1ncc2ccc(NC(=O)c3ccccn3)c(N3CCC(Oc4ccc(F)cc4F)CC3)c21` [Example 77, N-(7-(4-(2,4-difluorophenoxy)piperidin-1-yl)-1-methyl-1H-indazol-6-yl)picolinamide], the “pEC50, in vitro inhibition of cAMP” value is given as below 5.7.

Source of the values: US11426397B2, “Piperidinyl- and piperazinyl-substituted heteroaromatic carboxamides as modulators of GPR6” (TAKEDA PHARMACEUTICAL COMPANY LIMITED, priority 2017, dated 2022).
